The target in this assay is immobilized enzyme CAL-A and free enzyme CAL-A (Moesziomyces aphidis, UniProt W3VKA4). The assay is described as follows: Influence of organic solvents, metal ions and surfactants on enzyme activity. It is filed as biochemical, Candida antarctica. The conditions noted are these: for effect of organic solvent on hydrolysis activity: 10% (v/v) and 20% (v/v) solvent. From the text:
Add 10 mmol/L, 5 mmol/L, l0 mmol/L K+, Al^3+, Fe^2+, Fe3+, Ca^2+, Mg^2+, Mn^2+, Zn^2+, Ba^2+, Na^2+ and other 10 kinds of metal ion solutions to measure the enzyme activity respectively, take the activity of the untreated immobilized enzyme CAL-A and free enzyme CAL-A enzyme as 100%, analyze the influence of metal ions on the enzyme activity. (FIG. 4-G, FIG. 4-H, FIG. 4-I).
Add 10% (v/v) and 20% (v/v) methanol, ethanol, acetonitrile, acetone, n-butanol, isooctane, isopropanol, n-hexane, n-heptane, petroleum ether, tert-butyl Alcohol, glacial acetic acid, ethyl acetate and other 13 kinds of organic solvent solutions respectively, measure the enzyme activity. Take the untreated immobilized enzyme CAL-A and free enzyme CAL-A enzyme activity as 100%, analyze the influence of organic solvent on the enzyme activity.
Add 0.0001%, 0.0005%, 0.001% SDS, TritionX-100, Tween-80, Tween-20, EDTA and other 5 kinds of surfactant solutions respectively, measure the enzyme activity, take the untreated immobilized enzyme CAL-A and free enzyme CAL-A enzyme activity as 100%, analyze the influence of surfactant on enzyme activity.

Entries after “also recorded” stand apart in the source; their conditions may differ.

Chain of immobilized enzyme CAL-A and free enzyme CAL-A (W3VKA4 22-462): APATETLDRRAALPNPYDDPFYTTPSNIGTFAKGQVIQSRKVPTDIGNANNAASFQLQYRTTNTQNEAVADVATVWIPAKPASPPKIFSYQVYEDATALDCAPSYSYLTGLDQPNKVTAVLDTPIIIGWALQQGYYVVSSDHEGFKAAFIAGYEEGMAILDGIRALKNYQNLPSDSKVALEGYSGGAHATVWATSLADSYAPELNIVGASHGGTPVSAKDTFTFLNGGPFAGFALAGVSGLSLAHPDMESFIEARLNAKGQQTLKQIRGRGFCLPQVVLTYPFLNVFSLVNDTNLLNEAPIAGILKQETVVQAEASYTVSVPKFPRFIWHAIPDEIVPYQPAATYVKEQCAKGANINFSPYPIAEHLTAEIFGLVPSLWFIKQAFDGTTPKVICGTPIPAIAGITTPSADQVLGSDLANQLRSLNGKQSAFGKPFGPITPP

Regarding `O=C(O)CN(CCN(CC(=O)O)CC(=O)O)CC(=O)O` [EDTA], the “effect of surfactant on lipase activity” value is, setting by setting: (0.0005% EDTA) “activating effect; also recorded: activate”; (0.001% EDTA) “inhibitory effect; also recorded: inhibit”.

For the compound `O=S(=O)([O-])[O-].[Fe+2]` [Fe^2+], under “metal ion solutions 1, 5, 10 mmol/L, untreated enzyme = 100%”, the “effect of metal ion on hydrolysis of immobilized enzymes” value was “activate”.

Turning to `CC(=O)O` [acetic acid], the “effect of organic solvent on hydrolysis activity” value (“effect of organic solvent” below) (untreated enzyme = 100%) is listed as “significantly inhibit; also recorded: obvious inhibitory effects”.

As to `CCO` [ethanol], the “effect of organic solvent” value (untreated enzyme = 100%) is given as “significantly inhibit; also recorded: obvious inhibitory effects”.

`CCOC(C)=O` [ethyl acetate]: the “effect of organic solvent” value (untreated enzyme = 100%) is “activate; also recorded: activation effects”.

As for `CCCCCC` [n-hexane], for the setting “untreated enzyme = 100%”, the “effect of organic solvent” value was “significantly inhibit; also recorded: obvious inhibitory effects”.

On to `CC(C)(C)O` [tert-butanol], for which, for the setting “untreated enzyme = 100%”, the “effect of organic solvent” value was “activate; also recorded: activation effects”.

As for n-butanol, the “effect of organic solvent” value (untreated enzyme = 100%) is reported as “activate; also recorded: activation effects”.

The record behind these values is patent US20230183758A1, “METHOD FOR PREPARING DIACYLGLYCEROL BY IMMOBILIZED SN-2 LIPASE” (Shandong Academy of Agricultural Sciences, priority 2021, published 2023).
